Results from patent US11718628B2, “SREBP inhibitors comprising a 6-membered central ring” (Capulus Therapeutics, LLC, priority 2018, dated 2023).
Like-named read-outs stand apart in the source and are kept apart here.

How the values were obtained:
[1] = In vivo pharmacokinetic properties in mice (IV and PO); set-up: species or system C57BL/6J mice; conditions: C57BL/6J, mouse, in vivo
Outline: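 Male C57BL/6J mice received 10 mg/kg orally; plasma sampled by retro-orbital capillary at 0.25–24 h. IV dosing described at 2.00 mg/kg via tail vein, plasma sampled 0.083–24 h.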

[2] = Plasma and liver compound levels in mice after oral administration; assay type: in vivo; conditions: mouse, 30 mg/kg, 30 mpk
Description: (§1) The pharmacodynamic properties of selected compounds were evaluated in mice. The animals were housed in cages with clean bedding, and maintained and monitored for good health in accordance with Test Facility SOPs and at the discretion of the laboratory animal veterinarian. Certified rodent diet was provided. Food and water was available ad libitum. Environmental controls for the animal room were set to maintain a temperature of 22° C. to 25° C., humidity of 40-70% RH, and a 12-hour light/[…]. Normal healthy animals certified by the attending veterinarian were selected and acclimatized for minimum three days prior to initiation of study. Animals were identified with body markings.
(§2) Aliquots of the compounds being evaluated were weighed and triturated with 0.5% methylcellulose (with the addition of 5% N-methyl pyrrolidone when required to remove clumping, as for Z-806) to an appropriate dose concentration. Vials were labeled with the information about study number, test item, concentration and date of preparation. A description of appearance of formulation was recorded (e.g., color, turbidity, etc.). The composition of formulation vehicle was recorded. An aliquot of each dose solution was taken before the dosing began and after dosing was finished, and stored at approximately −20° C. or below for subsequent analysis. The animals were dosed orally through oral gavage needle, and time of dosing was recorded.
After dosing, the mice were anesthetized using gaseous anesthesia. Blood samples were collected through a capillary, guided in retro-orbital plexus, at 6 h or at 24 h. Approximately 100 uL of blood was collected from each mouse, in pre-labeled tubes. The collected blood was stored on ice prior to centrifugation. Blood samples were then centrifuged within 1 hour of collection to separate plasma. Centrifugation was conducted at 2500×g for 15 minutes at 4° C. The plasma was separated and transferred to pre-labeled micro-centrifuge tubes and promptly frozen at −80±10° C. until bioanalysis.
(§3) Liver Collection at 6 h or 24 h: Immediately after blood withdrawal for pharmacokinetic evaluation (at 6 or at 24 h), liver tissue was collected without perfusion. Animals were euthanized using carbon dioxide gas in a CO2 chamber. The whole blood was drained by cutting the both side jugular vein and abdominal aorta. The liver was separated out. All the liver samples were divided in two parts. The first part (200 mg approx.) was snap frozen using liquid nitrogen as soon as possible. These samples were immediately transferred to −80° C. for storage. The remaining part was weighed and used for bioanalysis.

[3] = system: liver gene expression (ACACA, ACLY, FASN, LSS, PNPLA3); assay: Liver gene expression in mice after oral administration; assay type: in vivo; conditions: 30 mpk, vs vehicle
Description: as §1, §2, §3
RNA Processing and Gene Expression Analysis: Liver Tissue RNA was harvested with the RNEasy kit and 20-100 ng used to synthesize cDNA with random primers following the manufacturer's protocol. Quantitative PCR was performed on 1 pg to 100 ng cDNA for the following genes: ACACA, ACLY, FASN, LSS, PNPLA3. Gene expression levels were determined using ΔΔCT method comparing treated to vehicle treated samples as a baseline, and fold change calculated. The average value for all 5 genes above was averaged and termed to Total Fold Change The results from this evaluation are presented in Table 8.

[4] = Log D by octanol/aqueous buffer partitioning; assay type: physicochemical; conditions: 1-octanol/aqueous buffer; pH 7.4, 1-octanol/buffer; read-out: LogD
Description: The Log D of selected compounds was evaluated by octanol/aqueous buffer partitioning. 500 μL of organic phase (1-octanol) was added to each well of a 2 mL deep well plate, followed by 500 μL of buffer and 15 μL of test compound in DMSO (0.15 mM). The plate was vortexed for 10 seconds and incubated at room temperature for 1 hr on a plate shaker at 200 rpm. After incubation, the samples were allowed to equilibrate for 20 min and then centrifuged at 4000 rpm for 30 min for complete phase separation. The distribution of test compound in buffer and octanol phase was analyzed by HPLC-UV. Log D=Log (Area of Octanol/Area of Buffer).

[5] = In vivo pharmacokinetic properties in rats (IV and PO); set-up: species or system male Sprague Dawley rats; conditions: male, Sprague Dawley, rat, plasma; for clearance: read-out: Intravenous Delivery (IV) CL; for Vd: read-out: Intravenous Delivery (IV) Vd; for bioavailability: PO 10 mg/kg vs IV 2 mg/kg, read-out: % F (Bioavailability of oral delivery); for Tmax: read-out: Oral Administration (PO) Tmax
Outline: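 Male Sprague Dawley rats received 2.00 mg/kg IV via the tail vein, with plasma sampled from a cannulated jugular vein from 0.083 to 24 h. Oral dosing was 10 mg/kg in rats or C57BL/6J mice, sampled at 0.25-24 h by jugular cannula (rats) or retro-orbital plexus (mice).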

[6] = 10 mg/kg, heading: Oral Administration AUC0-last, PO, 10 mg/kg
[7] = IV, 2 mg/kg, read-out: Intravenous Delivery (IV) AUC0-last
[8] = IV, 2 mg/kg, read-out: Intravenous Delivery (IV) T1/2 (converted)
[9] = PO, 10 mg/kg, read-out: Oral Administration (PO) T1/2 (converted)

AUC(0-t) [5, 6] | AUC(0-t) [5, 7] | clearance ([5]; IV, 2 mg/kg) | half-life [5, 8] | Vd ([5]; IV, 2 mg/kg) | bioavailability [5] | half-life [5, 9] | Tmax ([5]; PO, 10 mg/kg) | melting point | SMILES | further results
272 ng·h/mL | 2630 ng·h/mL | 12.8 mL/min/kg | 122 min | 2.26 L/kg | 2.1% | 150 min | 19.8 min | – | O=C(c1ccc(-c2cncc(-c3ccnc4c3OCCO4)c2)c(Cl)c1)N1CCC(O)CC1 [Compound Z-806, (3-chloro-4-(5-(2,3-dihydro-[1,4]dioxino[2,3-b]pyridin-8-yl)pyridin-3-yl)phenyl)(4-hydroxypiperidin-1-yl)methanone] | bioavailability [1]: 58%; AUC(0-t) ([1]; iv, 2 mg/kg): 1540 ng·h/mL; Vd ([1]; iv, 2 mg/kg): 8.91 L/kg; clearance ([1]; iv, 2 mg/kg): 21 mL/min/kg; half-life ([1]; iv, 2 mg/kg): 293 min; AUC(0-t) ([1]; po, 3 mg/kg): 1370 ng·h/mL; Tmax ([1]; po, 3 mg/kg): 15 min; half-life ([1]; po, 3 mg/kg): 211 min; concentration at 6 h ([2]; liver, read-out: Liver ng/mg (6 h)): > 1e+06 ng/g; concentration at 24 h ([2]; liver, read-out: Liver ng/mg 24 h): > 1e+06 ng/g; concentration at 6 h ([2]; plasma, read-out: Plasma ng/mL (6 h)): > 1000 ng/mL; concentration at 24 h ([2]; plasma, read-out: Plasma ng/mL (24 h)): > 1000 ng/mL; Total Gene FC Time (6 h) ([3]; 6 h): ++ (0.51-0.7509 = ++); Total Gene FC Time (24 h) ([3]; 24 h): +++ (0-0.509 = +++); LogD [4]: 1.98
– | – | – | – | – | – | – | – | 105 to 109 °C | COc1c(-c2ccnc(C(C)(C)C)c2)cncc1-c1ccc(C(=O)N2CCC(O)CC2)cc1Cl [Compound Z-840, (4-(2′-(tert-butyl)-4-methoxy-[3,4′-bipyridin]-5-yl)-3-chlorophenyl)(4-hydroxypiperidin-1-yl)methanone] | –
151 ng·h/mL | 1070 ng·h/mL | 31.7 mL/min/kg | 54.6 min | 2.54 L/kg | 2.8% | 41.4 min | 30 min | 100 to 104 °C | CC(C)(C)c1cc(-c2cncc(-c3ccc(C(=O)N4CCC(O)CC4)cc3)c2F)ccn1 [Compound Z-866, (4-(2′-(tert-butyl)-4-fluoro-[3,4′-bipyridin]-5-yl)phenyl)(4-hydroxypiperidin-1-yl)methanone] | –
